What all share (type): cell-based
Test [1] has as its system 8 human ZIKV strains (PAN2016, R116265, PAN2015, FLR, R103451, PRVABC59, PLCal_ZV, IbH 30656). As to the kind of experiment: microbe, parasite or virus in culture. Conditions: Zika virus, read-out: Average IC50 (human strains). The protocol: (§1) After removal of the unbound compounds by centrifugation (after addition of 3% PEG-6000), ZIKV was incubated with Vero E6 cells in 24-well plates at 37°C for 1 h. The cells were then washed with PBS, overlaid with DMEM containing 1% carboxymethyl cellulose and 2% FBS, and cultured at 37°C for 4–5 days, followed by being stained with 0.5% crystal violet. […] Plaques in each well were calculated, and IC50 of compounds for each compound was calculated using the CalcuSyn computer program.

In test [2] the test system is ZIKV human strain PRVABC59. As to the kind of experiment: Plaque assay, inhibition of ZIKV infection (strain PRVABC59). The following applies: Zika virus, Vero C1008; plaque assay, Vero E6 cells, human strain; read-out: IC50 PRVABC59. The protocol:
as §1

Another test deals with DENV-4-PR-06-65-740. As to the kind of experiment: Plaque assay, inhibition of DENV-4 infection in LLC-MK2 cells. The following applies: Dengue virus, DENV4.
The subject of another test is DENV-3-V1043. As to the kind of experiment: Plaque assay, inhibition of DENV-3 infection in LLC-MK2 cells. The following applies: Dengue virus, DENV3.

As usually defined, the IC50 is the concentration needed to halve the response being measured. Regarding `Cc1cc2c(C(C)C)c(O)c(O)c(/C=N/n3c(=O)[nH][nH]c3=O)c2c(O)c1-c1c(C)cc2c(C(C)C)c(O)c(O)c(/C=N/n3c(=O)[nH][nH]c3=O)c2c1O` [ST087010], the IC50 is 2900 nM in test [1], 2400 nM in test [2], 2980 ± 180 nM in the test on DENV-4-PR-06-65-740 and 3330 ± 80 nM in the test on DENV-3-V1043.

The values above are taken from PMC9202104 (BMC Biology, 2022).
